Measured values taken from the NIST ThermoML archive (doi:10.1021/acs.jced.8b00132).
Several values for one entry are separate records, joined by “and”; a condition that tells them apart may be missing. Identical values can stand only once. ± gives the expanded uncertainty stated by the source.

Conditions: Liquid, transient hot wire

O=C(C(F)(F)C(F)(F)F)C(F)(C(F)(F)F)C(F)(F)F [dodecafluoro-2-methylpentan-3-one]
Conditions	thermal conductivity
192.97 K, 9415 kPa	0.07862 ± 0.0016 W/m/K
192.97 K, 9417 kPa	0.07861 ± 0.0016 W/m/K
192.98 K, 6038 kPa	0.0783 ± 0.0016 W/m/K
192.98 K, 6049 kPa	0.07834 ± 0.0016 W/m/K
192.99 K, 167 kPa	0.07692 ± 0.0016 W/m/K
192.99 K, 173 kPa	0.07695 ± 0.0016 W/m/K
193 K, 151 kPa	0.07702 ± 0.0016 W/m/K
193 K, 154 kPa	0.07718 ± 0.0016 W/m/K
193.29 K, 67553 kPa	0.08802 ± 0.0018 W/m/K
193.29 K, 67565 kPa	0.0877 ± 0.0018 W/m/K
193.3 K, 61029 kPa	0.08639 ± 0.0018 W/m/K
193.31 K, 52610 kPa	0.086 ± 0.0018 W/m/K
193.31 K, 52615 kPa	0.08604 ± 0.0018 W/m/K
193.31 K, 61018 kPa	0.08674 ± 0.0018 W/m/K
193.33 K, 44206 kPa	0.08413 ± 0.0017 W/m/K
193.33 K, 44213 kPa	0.08424 ± 0.0017 W/m/K
193.35 K, 36147 kPa	0.08312 ± 0.0017 W/m/K
193.35 K, 36154 kPa	0.08322 ± 0.0017 W/m/K
193.37 K, 28301 kPa	0.08185 ± 0.0017 W/m/K
193.37 K, 28302 kPa	0.08165 ± 0.0017 W/m/K
193.42 K, 20237 kPa	0.08068 ± 0.0017 W/m/K
193.43 K, 20237 kPa	0.08099 ± 0.0017 W/m/K
193.45 K, 13265 kPa	0.07982 ± 0.0016 W/m/K
193.45 K, 13266 kPa	0.07945 ± 0.0016 W/m/K
193.48 K, 6427 kPa	0.07813 ± 0.0016 W/m/K
193.48 K, 6455 kPa	0.07812 ± 0.0016 W/m/K
193.51 K, 179 kPa	0.07701 ± 0.0016 W/m/K
193.52 K, 180 kPa	0.07688 ± 0.0016 W/m/K
211.41 K, 165 kPa	0.07448 ± 0.0015 W/m/K
211.41 K, 170 kPa	0.07442 ± 0.0015 W/m/K
211.41 K, 5799 kPa	0.07599 ± 0.0016 W/m/K
211.41 K, 5800 kPa	0.0759 ± 0.0016 W/m/K
211.41 K, 12664 kPa	0.07737 ± 0.0016 W/m/K
211.41 K, 12666 kPa	0.07746 ± 0.0016 W/m/K
211.41 K, 19434 kPa	0.07882 ± 0.0016 W/m/K and 0.07893 ± 0.0016 W/m/K
211.43 K, 26838 kPa	0.08023 ± 0.0016 W/m/K
211.43 K, 26842 kPa	0.08059 ± 0.0017 W/m/K
211.43 K, 34778 kPa	0.08175 ± 0.0017 W/m/K
211.43 K, 34786 kPa	0.0823 ± 0.0017 W/m/K
211.76 K, 52040 kPa	0.08466 ± 0.0017 W/m/K
211.76 K, 52042 kPa	0.08451 ± 0.0017 W/m/K
211.77 K, 60806 kPa	0.08612 ± 0.0018 W/m/K
211.77 K, 60808 kPa	0.0862 ± 0.0018 W/m/K
211.77 K, 67154 kPa	0.087 ± 0.0018 W/m/K
211.78 K, 67150 kPa	0.08734 ± 0.0018 W/m/K
211.8 K, 12660 kPa	0.07728 ± 0.0016 W/m/K
211.8 K, 19446 kPa	0.07881 ± 0.0016 W/m/K
211.8 K, 19450 kPa	0.07869 ± 0.0016 W/m/K
211.81 K, 173 kPa	0.07406 ± 0.0015 W/m/K
211.81 K, 5801 kPa	0.07566 ± 0.0016 W/m/K
211.81 K, 5813 kPa	0.07576 ± 0.0016 W/m/K
211.81 K, 12660 kPa	0.0775 ± 0.0016 W/m/K
211.81 K, 26841 kPa	0.07965 ± 0.0016 W/m/K
211.81 K, 26845 kPa	0.08017 ± 0.0016 W/m/K
211.81 K, 34792 kPa	0.08166 ± 0.0017 W/m/K
211.81 K, 34801 kPa	0.08137 ± 0.0017 W/m/K
211.81 K, 43011 kPa	0.08307 ± 0.0017 W/m/K
211.81 K, 43012 kPa	0.0834 ± 0.0017 W/m/K
211.82 K, 163 kPa	0.07354 ± 0.0015 W/m/K
212.17 K, 60783 kPa	0.08526 ± 0.0018 W/m/K
212.17 K, 60795 kPa	0.08562 ± 0.0018 W/m/K
212.17 K, 67130 kPa	0.08706 ± 0.0018 W/m/K
212.18 K, 52048 kPa	0.08429 ± 0.0017 W/m/K
212.18 K, 52063 kPa	0.08422 ± 0.0017 W/m/K
212.18 K, 67138 kPa	0.08699 ± 0.0018 W/m/K
212.23 K, 26847 kPa	0.0801 ± 0.0016 W/m/K
212.23 K, 34793 kPa	0.08106 ± 0.0017 W/m/K
212.23 K, 34794 kPa	0.08097 ± 0.0017 W/m/K
212.23 K, 43021 kPa	0.08227 ± 0.0017 W/m/K
212.24 K, 12668 kPa	0.07725 ± 0.0016 W/m/K
212.24 K, 19437 kPa	0.07855 ± 0.0016 W/m/K
212.24 K, 26845 kPa	0.07971 ± 0.0016 W/m/K
212.25 K, 12667 kPa	0.07727 ± 0.0016 W/m/K
212.26 K, 5796 kPa	0.07549 ± 0.0015 W/m/K
212.27 K, 173 kPa	0.0737 ± 0.0015 W/m/K
212.27 K, 5805 kPa	0.07454 ± 0.0015 W/m/K
212.28 K, 168 kPa	0.07378 ± 0.0015 W/m/K
212.61 K, 67097 kPa	0.08653 ± 0.0018 W/m/K
212.61 K, 67117 kPa	0.08664 ± 0.0018 W/m/K
212.62 K, 52074 kPa	0.0837 ± 0.0017 W/m/K
212.62 K, 60785 kPa	0.08529 ± 0.0018 W/m/K
212.62 K, 60787 kPa	0.08543 ± 0.0018 W/m/K
212.63 K, 52063 kPa	0.08349 ± 0.0017 W/m/K
212.68 K, 43009 kPa	0.08278 ± 0.0017 W/m/K
